# Reference: patent publication US9896487B2, “Amyloidosis-inhibiting polypeptides and their use” (UNIVERSITY OF WASHINGTON THROUGH ITS CENTER FOR …, priority 2013, dated 2018)
# “Also recorded” adds a separate entry of the source. Where two headings read alike, the source gives them in different places. [ ]: non-standard residue; d: D form.
# Key:
# transthyretin (TTR) = target: T1, transthyretin (TTR) (Homo sapiens, UniProt P02766); assay: TTR fibrillization assay (Congo red binding); assay type: biochemical; conditions: peptide without regard to TTR; prevents solution TTR assay
# T1 construct: purchased Lee Biosolutions, St. Louis Mo; 496-11
# Procedure: Aliqouts of transthyretin (TTR) (496-11; Lee Biosolutions, St. Louis Mo.) were made from a 1 mg/mL solution 20 mM ammonium carbonate, pH 8. Aliquots were lyophilized and stored at −18° C. Prior to use, TTR was dissolved to 80 μM (monomer) in acetate buffer (50 mM potassium acetate, 100 mM potassium chloride pH 4.5) and sonicated for 10 minutes. The stock solution was centrifuged before use. Peptide designs were added to stock TTR to a final TTR concentration of 40 μM (monomer) in acetate buffer (pH 4.5) in 500 μL microcentrifuge tubes, which were incubated at 37° C. Periodically, samples were collected from the TTR:peptide mixture by briefly centrifuging, and then carefully pipetting the solution up and down prior to withdrawing a 10 μL sample and diluting it in 190 μL of 10 μM Congo red in an individual well of a 96-well assay plate. Each measurement was performed in triplicate. Absorbance measurements were taken at 477 and 540 nm. Relative Congo red binding was determined using the method of Klunk et al. using the relationship: rCb=(Abs540/25,295)−(Abs477/46,306) (40). All datapoints were normalized to the value recorded for TTR alone pH 4.5 at 48 hrs.
# The “control” designs were tested as general inhibitors against the Amyloid β 1-42 peptide (Aβ) (panel A), the islet amylin polypeptide (IAPP, or amylin, which is implicated in type 2 diabetes) (panel B), and transthyretin (TTR) (panel C) amyloidosis (FIG. 6). […] As described in Example 1, a Thioflavin T (ThT) fluorescence assay was used to monitor Aβ and IAPP aggregation. A Congo Red dye-binding assay was used to monitor TTR fibrillization. For inhibition against Aβ, peptides were co-incubated at 4-fold excess of Aβ at RT in neutral pH buffer containing ThT. Note that the results for α1 differ somewhat from what are included in Example 1 because the assay conditions were altered slightly to slow the process down to favor oligomerization of Aβ (rather than fibril elongation) by lowering the temperature to 25° C. […] For inhibition against IAPP, peptides were co-incubated at 8-fold excess of IAPP at 37° C. in neutral pH buffer containing 20 μM ThT. For inhibition against TTR, peptides were co-incubated at 10-fold excess of monomeric TTR.
# [1] = test system: Aβ, IAPP and TTR amyloidosis / toxic oligomer; assay: Inhibitory activity summary: inhibition of aggregation and/or binding of toxic oligomer; assay type: biochemical; conditions: for inhibition of aggregation (FIG. 6): Aβ, IAPP, TTR panels; for inhibitor quality compared with ldas90: FIG. 6 / FIG. 7
# Procedure: In addition, FIG. 5 contains ‘control’ designs aimed at reverse engineering the α1 design, which is presented in more detail in Example 3. […] These designs are both linear and cyclic peptides designed to be hairpins.
# The “control” designs were tested as general inhibitors against the Amyloid β 1-42 peptide (Aβ) (panel A), the islet amylin polypeptide (IAPP, or amylin, which is implicated in type 2 diabetes) (panel B), and transthyretin (TTR) (panel C) amyloidosis (FIG. 6). […] As described in Example 1, a Thioflavin T (ThT) fluorescence assay was used to monitor Aβ and IAPP aggregation. A Congo Red dye-binding assay was used to monitor TTR fibrillization. For inhibition against Aβ, peptides were co-incubated at 4-fold excess of Aβ at RT in neutral pH buffer containing ThT. […] For inhibition against IAPP, peptides were co-incubated at 8-fold excess of IAPP at 37° C. in neutral pH buffer containing 20 μM ThT. For inhibition against TTR, peptides were co-incubated at 10-fold excess of monomeric TTR.
# The data in FIG. 6 were normalized to ThT fluorescence of the negative (uninhibited) control (black squares). Inhibition traces are ordered vertically according to sequence identity to α1 (see Table 1). Sigmoidal fits to data are included. Controls are identical throughout a single panel, and traces for inhibition samples are colored while the uninhibited aggregation profiles are in black.
# toxic oligomer = assay: Binding of toxic oligomer by peptide immobilized to agarose beads (Examples 2 and 3)
# Procedure: Peptide designs were immobilized to the Pierce Amino Link resin following the manufacturer's instructions. Peptides were immobilized in a volume of 200 μL of coupling buffer (100 mM sodium phosphate, 150 mM sodium chloride, pH 7.2) and 2 μL cyanoborohydride solution (5 M sodium cyanoborohydride in 1 M NaOH) at a concentration of 358 μM overnight at 4° C. Any residual active sites were blocked with 400 μL quenching buffer (1 M tris hydrochloride, pH 7.4) and 4 μL cyanoborohydride solution for 4 hours at 25° C. Binding experiments were performed from 200 μL amyloid solution (5 μM Aβ or 20 μM TTR (monomer) diluted to the desired concentration in coupling buffer), which was allowed to bind to the peptide-bound agarose beads for 2 h at 25° C. The solution was then collected by centrifugation (flow through, FT). The beads were resuspended in 300 μL coupling buffer, vortexed to obtain an uniform slurry, and the solution was again collected by centrifugation (wash 1, W1). The wash step was performed an additional five times (W2-W6). One final wash step was performed but after resuspending the resin, the solution was allowed to sit for 5 minutes before centrifugation (W7). The resin was next resuspended in 100 μL 2M guanidine hydrochloride, incubated for 5 minutes at room temperature, then collected as before. This was performed twice (E1-E2). The resin was washed again with 300 μL coupling buffer (W8) followed by two elution steps with 6M guanidine hydrochloride (E3-E4). One final wash step was performed with 300 μL coupling buffer (W9). All collected eluents were analyzed by applying triplicate 1 μL spots to nitrocellulose, and then performing standard dot blot analysis as described by Kayed et al. (9) with an anti-TTR (sc-13098, Santa Cruz Biotechnology, Santa Cruz, Calif.) or anti-Aβ (ab39377; Abeam Inc, Cambridge, Mass.) primary antibody diluted 1:1.000 in 5% or 10% nonfat milk, respectively.
# Three α-sheet designs are addressed in Example 1, but many more have been evaluated using these same assays and structural methods. FIG. 5 contains a list of other designed α-sheet peptides, both linear and cyclic (specifically peptides #3-5 and #8-9), as well as other control, non-α-sheet designs (peptides #17-18, 20). In addition, FIG. 5 contains ‘control’ designs aimed at reverse engineering the α1 design, which is presented in more detail in Example 3. […] Random primary sequences of amino acids are active in the polypeptides of the invention; these same primary sequences are not active if the polypeptide is provided in an entirely L-amino acid peptide or if the L/D amino acids are randomly distributed within the polypeptide such that they are not alternating (i.e. if they are not polypeptides according to the invention). […] They also all inhibit aggregation and/or bind the toxic oligomer. Some of the polypeptides are insoluble and the solution assay can't be performed, but they do bind the targeted toxic oligomer when they are immobilized to agarose beads to promote solubilization. • Thus, this provides further evidence that the primary amino acid sequence per se is not determining structure and activity, the L/D patterning is. However, the sequence modulates the activity and solubility properties. • Both cyclic and linear designs with different sequences form α-sheet polypeptides, inhibit aggregation, and bind the toxic oligomer. […] (See peptides #1 and #7.) Note, however, that the charges can modulate the level of activity. • Next, consider all 14 designed peptides with the L/D turn template, they are all active. Some have issues with solubility but they all form α-sheet and are active amyloid inhibitors in solution and/or binding of the toxic oligomer. These designs are both linear and cyclic peptides designed to be hairpins. The sequence identity relative to ldas90 (peptide #1) ranges from 9-91% across these 14 designs with an average of 43%. […]
Substance,Congo red binding by the peptide itself (transthyretin (TTR)),Inhibits Aggregation and/or binds oligomer? [1],inhibition of aggregation (FIG. 6) [1],binds toxic oligomer when immobilized (toxic oligomer),further results
Ac-AQQiEcItNVWDKEItMyFnVSE-NH2 (Ac-AQQ[dI]E[dC]L[dT]NVWDKEL[dT]M[dY]F[dN]VSE-NH2; not fully specified) [peptide #11],bind Congo Red,yes,weak,do bind toxic oligomer,Inhibits Aggregation and/or binds oligomer? ([1]; listed as Control 3): active
RGEmNlSwMNEYSGWtMnLkMGR [peptide #7],,demonstrate activity,,,
Ac-RGNwNeSkMNEYSGWmLmLtMGR-NH2 (Ac-RGN[dW]N[dE]S[dK]MNEYSGW[dM]L[dM]L[dT]MGR-NH2; SMILES CSCC[C@H](NC(=O)[C@@H](CCCCN)NC(=O)[C@H](CO)NC(=O)[C@@H](CCC(=O)O)NC(=O)[C@H](CC(N)=O)NC(=O)[C@@H](Cc1c[nH]c2ccccc12)NC(=O)[C@H](CC(N)=O)NC(=O)CNC(=O)[C@H](CCCNC(=N)N)NC(C)=O)C(=O)N[C@@H](CC(N)=O)C(=O)N[C@@H](CCC(=O)O)C(=O)N[C@@H](Cc1ccc(O)cc1)C(=O)N[C@@H](CO)C(=O)NCC(=O)N[C@@H](Cc1c[nH]c2ccccc12)C(=O)N[C@H](CCSC)C(=O)N[C@@H](CC(C)C)C(=O)N[C@H](CCSC)C(=O)N[C@@H](CC(C)C)C(=O)N[C@@H](C(=O)N[C@@H](CCSC)C(=O)NCC(=O)N[C@@H](CCCNC(=N)N)C(N)=O)[C@H](C)O) [peptide #6],,yes,good inhibitor,binds the toxic oligomer,inhibitor quality compared with ldas90 [1]: as good as ldas90 (peptide #1) with capped ends; also recorded: better than ldas90 with charged ends (peptide #7); inhibitor quality compared with ldas90 ([1]; listed as Control5): as active; Inhibits Aggregation and/or binds oligomer? ([1]; listed as Control5): active
Ac-RGEaWmYiKNNLSETmMsNmWGR-NH2 [peptide #12],bind Congo Red,yes,inhibits aggregation,,Inhibits Aggregation and/or binds oligomer? ([1]; listed as Control6): active; binds toxic oligomer when immobilized (toxic oligomer; listed as Control 6): do bind toxic oligomer; binds toxic oligomer when immobilized (toxic oligomer; listed as Control6): binds the toxic oligomer
Ac-MNWESkGEwIRMRYGtmLSNGnM-NH2 (Ac-MNWES[dK]GE[dW]LRMRYG[dT][dM]LSNG[dN]M-NH2; SMILES CSCC[C@H](NC(=O)[C@@H](CC(N)=O)NC(=O)CNC(=O)[C@H](CC(N)=O)NC(=O)[C@H](CO)NC(=O)[C@H](CC(C)C)NC(=O)[C@@H](CCSC)NC(=O)[C@H](NC(=O)CNC(=O)[C@H](Cc1ccc(O)cc1)NC(=O)[C@H](CCCNC(=N)N)NC(=O)[C@H](CCSC)NC(=O)[C@H](CCCNC(=N)N)NC(=O)[C@H](CC(C)C)NC(=O)[C@@H](Cc1c[nH]c2ccccc12)NC(=O)[C@H](CCC(=O)O)NC(=O)CNC(=O)[C@@H](CCCCN)NC(=O)[C@H](CO)NC(=O)[C@H](CCC(=O)O)NC(=O)[C@H](Cc1c[nH]c2ccccc12)NC(=O)[C@H](CC(N)=O)NC(=O)[C@H](CCSC)NC(C)=O)[C@H](C)O)C(N)=O) [peptide #19],bind Congo Red,no,,does not,Inhibits Aggregation and/or binds oligomer? ([1]; listed as Control2): inactive
Ac-WRPwAiDgMNTBKQRkAsVyLQP-NH2 [peptide #13],bind Congo Red,yes,,do bind toxic oligomer,Inhibits Aggregation and/or binds oligomer? ([1]; listed as Control 4): active
"Ac-RGEMNLSWMNEYSGWTMNLKMGR-NH2 (not fully specified (residues 4, 6, 8, 16, 18, 20); printed as Ac-RGEMNLSWMNEYSGWTMNLKMGR-NH2) [peptide #20, all L-amino acid version of ldas90]",,no,,,Inhibits Aggregation and/or binds oligomer? ([1]; listed as llas90): inactive
